Experimental data as given in publication PMC6694155, “PTPσ inhibitors promote hematopoietic stem cell regeneration” (Nature Communications, 2019).
“And” between values parts separate entries of the source, which are not always exact repeats. Equal entries are not always repeated.

How the values were obtained:
[1] = Pharmacokinetic study for DJ001; assay type: in vivo, mouse; settings: for concentration of DJ001 in the peripheral blood: 5 mg/kg single subcutaneous dose
Description: PK studies for DJ001 were performed at Cyprotex (Study Number CYP1426-R1) under non-good laboratory practice conditions. Mice were subcutaneously injected with a single dose of 5 mg/kg DJ001 (in 10% DMSO, 40% phosphate-buffered saline (PBS), 50% polyethylene glycol and plasma samples were collected at 0.08, 0.25, 0.5, 1, 2, 4, 8, and 24 h. Samples were crashed with three volumes of methanol and analytical internal standard (propranolol). Supernatant was subjected to liquid chromatography-mass spectrometry/mass spectrometry (MS/MS) using an acetonitrile-water gradient system and electrospray ionization in multiple reaction monitoring mode for MS detection. All plasma samples were compared with an internal calibration curve prepared in mouse blank plasma.

[2] = target: T1, DUSP22 (Dual Specificity Phosphatase 22) (Homo sapiens, UniProt Q9NRW4); experiment: PhosphataseProfiler screen: DUSP22; assay type: biochemical; settings: replicates
T1 construct: purchased Eurofins Pharma Discovery Services UK
Description: (§1) Compound DJ001 was evaluated in a PhosphataseProfiler™ screen at 10 μM and 1 μM (2.7 μg/mL and 0.27 μg/mL) concentrations at Eurofins Pharma Discovery Services UK (Study number UK022-0004033) against a panel of 21 Phosphatases. In each experiment, the respective reference antagonist/agonist was tested directly with DJ001 and the data were compared with historical values determined at Eurofins. DJ001 compound inhibition was calculated as percentage inhibition of the enzymatic activity compared with control.

BM KSL cells = experiment: Gene expression of pro- and anti-apoptotic genes in irradiated BM KSL cells (qPCR); assay type: cell-based, mouse; set-up: key to Figure 3g: gene expression, Bax / Figure 3g: gene expression, Bcl-2 / Figure 3g: gene expression, Bcl-xL / Figure 3g: gene expression, Bim / Figure 3g: gene expression, Mcl1: fold change, 2^-ΔΔCt vs media-treated non-irradiated KSL, Gapdh-normalized
Source text: (§2) For all studies, RNA was isolated using the Qiagen RNeasy micro kit (Qiagen). RNA was reverse transcribed using the High-Capacity cDNA Reverse Transcription Kit (ThermoFisher Scientific) and was then used for quantitative PCR with SYBR Select Master Mix (Life Technologies). Values were normalized to housekeeping gene Gapdh/GAPDH and given as ΔΔCt values normalized to media-treated, non-irradiated BM KSL cells (2(−ΔΔC(T)) method)[67].

[3] = system: BM KSL cells / BM lin− cells; experiment: Gene expression of cell cycle regulatory genes (qPCR); assay type: cell-based, mouse
Description: Rac1 CDS-targeting- and Bcl2l1 CDS-targeting shRNA in lentiviral plasmid (TRCN0000310888 and TRCN0000004685) and control shRNA (SHC216V) were purchased from Sigma Aldrich. For viral production, 293T cells were transfected with lentiviral gag/pol and VSV-G (courtesy of Donald Kohn, UCLA) and the lentiviral plasmids, at a ratio of 2.2: 1.2: 3.3 (in [μg], gag/pol:VSVG:Plasmid) using Lipofectamine 3000 and P300 Enhancer. Viral particles were collected after 24 h and 48 h. One milliliter of viral supernatant was used to infect 0.75 × 10^6 BM lin^− cells. Infected cells were collected the next day and irradiated with 300 cGy followed by treatment with or without 1 μg/mL DJ001, prior to CFC assay.
as §2

[4] = target: T2, LMPTP-A (Low Molecular Weight Protein Tyrosine Phosphatase A) (Homo sapiens, UniProt P24666); experiment: PhosphataseProfiler screen: LMPTP-A; assay type: biochemical; settings: replicates
T2 construct: purchased Eurofins Pharma Discovery Services UK
Description: as §1

[5] = target: T3, PTPN22 (Protein Tyrosine Phosphatase Non-Receptor Type 22) (Homo sapiens, UniProt Q9Y2R2); experiment: PhosphataseProfiler screen: PTPN22; assay type: biochemical; settings: replicates
T3 construct: purchased Eurofins Pharma Discovery Services UK
Description: as §1

[6] = BM KSL cells, 12 h post 300 cGy
[7] = irradiated BM KSL cells, qPCR, replicates
[8] = KSL cells, 36 h following 300 cGy, normalized to Gapdh and media

T1 sequence (Q9NRW4 whole entry, species assumed): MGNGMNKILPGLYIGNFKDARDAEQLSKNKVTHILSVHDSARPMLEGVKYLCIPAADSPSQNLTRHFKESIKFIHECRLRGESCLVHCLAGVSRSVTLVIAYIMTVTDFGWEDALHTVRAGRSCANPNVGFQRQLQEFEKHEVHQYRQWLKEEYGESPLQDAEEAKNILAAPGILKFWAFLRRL
T3 sequence (Q9Y2R2 whole entry, species assumed): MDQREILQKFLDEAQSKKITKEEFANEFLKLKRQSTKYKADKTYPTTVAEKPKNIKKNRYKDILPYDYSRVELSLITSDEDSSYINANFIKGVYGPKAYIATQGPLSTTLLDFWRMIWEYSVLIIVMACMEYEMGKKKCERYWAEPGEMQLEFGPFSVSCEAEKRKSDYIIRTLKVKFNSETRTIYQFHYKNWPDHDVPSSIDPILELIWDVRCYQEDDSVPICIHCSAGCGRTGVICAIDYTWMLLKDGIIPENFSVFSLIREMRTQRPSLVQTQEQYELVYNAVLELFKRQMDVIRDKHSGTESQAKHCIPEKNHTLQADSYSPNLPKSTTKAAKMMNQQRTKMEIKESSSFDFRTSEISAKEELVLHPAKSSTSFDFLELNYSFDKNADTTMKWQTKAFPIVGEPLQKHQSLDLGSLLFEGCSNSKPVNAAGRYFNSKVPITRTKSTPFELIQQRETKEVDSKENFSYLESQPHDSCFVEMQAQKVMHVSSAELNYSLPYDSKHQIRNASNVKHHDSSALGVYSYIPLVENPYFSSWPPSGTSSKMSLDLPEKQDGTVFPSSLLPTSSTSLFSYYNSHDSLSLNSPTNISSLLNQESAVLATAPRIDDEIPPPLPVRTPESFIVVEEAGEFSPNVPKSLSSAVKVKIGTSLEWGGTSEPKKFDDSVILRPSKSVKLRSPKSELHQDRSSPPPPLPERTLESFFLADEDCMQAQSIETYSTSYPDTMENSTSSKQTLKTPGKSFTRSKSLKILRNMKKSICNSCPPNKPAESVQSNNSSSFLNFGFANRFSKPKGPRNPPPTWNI
T2 sequence (P24666 whole entry, species assumed): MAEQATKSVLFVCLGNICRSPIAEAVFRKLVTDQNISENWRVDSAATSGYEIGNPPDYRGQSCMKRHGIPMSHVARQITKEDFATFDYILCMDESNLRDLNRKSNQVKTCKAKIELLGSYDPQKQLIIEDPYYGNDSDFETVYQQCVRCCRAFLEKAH

**Q.** With `O=C(/C=C\Nc1cccc([N+](=O)[O-])c1)c1ccccc1` [DJ001, (Z)-3-((3-nitrophenyl)amino)-1-phenylprop-2-en-1-one] as the compound, how does the “concentration of DJ001 in the peripheral blood” value ([1]; through + 24 hours following administration) read?
**A.** approximately 10 ng/ml

**Q.** And the “concentration of DJ001 in the peripheral blood” value ([1]; within 1 hour after administration)?
**A.** 100 ng/mL

**Q.** What about the “DJ001 concentrations in the PB” value ([1]; 5 mg/kg subcutaneously × 1, over several hours post injection) of the same compound?
**A.** 10 to 100 ng/mL

**Q.** What about the “Supplementary Figure 4f: Concentration” value ([1]; 0.08 Hours, individual mice) of the same compound?
**A.** 170 ng/mL and 54.7 ng/mL and 61.1 ng/mL

**Q.** And the “Supplementary Figure 4f: Concentration” value ([1]; 0.25 Hours, individual mice)?
**A.** 159 ng/mL and 93.5 ng/mL

**Q.** And the “Supplementary Figure 4f: Concentration” value ([1]; 0.5 Hours, individual mice)?
**A.** 113 ng/mL and 133 ng/mL and 60.5 ng/mL

**Q.** What about the “Supplementary Figure 4f: Concentration” value ([1]; 1 Hours, individual mice) of the same compound?
**A.** 40.5 ng/mL and 40.7 ng/mL

**Q.** And the “Supplementary Figure 4f: Concentration” value ([1]; 2 Hours, individual mice)?
**A.** 35.3 ng/mL and 19.5 ng/mL

**Q.** What about the “Supplementary Figure 4f: Concentration” value ([1]; 4 Hours, individual mice) of the same compound?
**A.** 5.8 ng/mL and 6.7 ng/mL

**Q.** And the “Supplementary Figure 4f: Concentration” value ([1]; 8 Hours, individual mice)?
**A.** 1.7 ng/mL and 7.8 ng/mL and 12.4 ng/mL

**Q.** And the “Supplementary Figure 4f: Concentration” value ([1]; 24 Hours, individual mice)?
**A.** 2.8 ng/mL and 2.3 ng/mL and 8.9 ng/mL

**Q.** What about the concentration at 0.25 h ([1]; C57BL/6, mouse, plasma, subcutaneous, 5 mg/kg, 0.25 Hours, individual mice, read-out: Supplementary Figure 4f: Concentration) of the same compound?
**A.** 113 ng/mL

**Q.** What about the concentration at 1 h ([1]; C57BL/6, mouse, plasma, subcutaneous, 5 mg/kg, 1 Hours, individual mice, read-out: Supplementary Figure 4f: Concentration) of the same compound?
**A.** 79.5 ng/mL

**Q.** And the concentration at 2 h ([1]; C57BL/6, mouse, plasma, subcutaneous, 5 mg/kg, 2 Hours, individual mice, read-out: Supplementary Figure 4f: Concentration)?
**A.** 32.9 ng/mL

**Q.** And the concentration at 4 h ([1]; C57BL/6, mouse, plasma, subcutaneous, 5 mg/kg, 4 Hours, individual mice, read-out: Supplementary Figure 4f: Concentration)?
**A.** 6.5 ng/mL

**Q.** And the “Supplementary Figure 1: DUSP22 activity” value ([2]; 0.27 μg/mL DJ001)?
**A.** 107 and 96 (2×)

**Q.** And the “Supplementary Figure 1: DUSP22 activity” value ([2]; 2.7 μg/mL DJ001)?
**A.** 98 and 109 and 100

**Q.** And the “expression of Bim, Bax, Puma, Bcl2” value (BM KSL cells; [6])?
**A.** no effect

**Q.** What about the “expression of Mcl-1 and Bcl2l1” value (BM KSL cells; [6]) of the same compound?
**A.** increased the expression

**Q.** And the “Figure 3g: gene expression, Bax” value (BM KSL cells; [7])?
**A.** 2.95 and 3.78 and 1.75

**Q.** What about the “Figure 3g: gene expression, Bcl-2” value (BM KSL cells; [7]) of the same compound?
**A.** 1.73 and 1.94 and 1.28 and 1.59 and 1.76 and 1.06

**Q.** What about the “Figure 3g: gene expression, Bcl-xL” value (BM KSL cells; [7]) of the same compound?
**A.** 4.94 and 3.23 and 6.87 and 4.82 and 3.79 and 5.97

**Q.** And the “Figure 3g: gene expression, Bim” value (BM KSL cells; [7])?
**A.** 2.95 and 3.78 and 2.75

**Q.** And the “Figure 3g: gene expression, Mcl1” value (BM KSL cells; [7])?
**A.** 1.95 and 1.78 and 2.55 and 0.81 and 1.62 and 1.96

**Q.** And the “Figure 3g: gene expression, Puma” value (BM KSL cells; [7])?
**A.** 2.95 and 1.78 and 1.75

**Q.** What about the “DJ001-mediated transcription of Cdk2 and Cyclin E with Rac1-shRNA” value ([3]; BM KSL cells transduced with Rac1-shRNA) of the same compound?
**A.** blocked DJ001-mediated transcription of Cdk2 and Cyclin E

**Q.** What about the “Fold changes (2^−ΔΔCt) of Cyclin E expression (Figure 4c right panel)” value ([3]; BM lin− cells, 48 h after 300 cGy, shCtrl) of the same compound?
**A.** 1.96 and 1.7 and 1.9

**Q.** And the “Fold changes (2^−ΔΔCt) of Cdk2 expression (Figure 4c left panel)” value ([3]; BM lin− cells, 48 h after 300 cGy, shRac1)?
**A.** 0.56 and 0.39 and 0.71 and 0.44

**Q.** What about the “Fold changes (2^−ΔΔCt) of Cdk2 expression” value [3, 8] of the same compound?
**A.** 1.9 and 2.08 and 1.8

**Q.** What about the “Fold changes (2^−ΔΔCt) of Cdk4 expression” value [3, 8] of the same compound?
**A.** 1.32 and 1.05 and 1

**Q.** What about the “Fold changes (2^−ΔΔCt) of Cdk6 expression” value [3, 8] of the same compound?
**A.** 1.09 and 0.91 and 0.98

**Q.** And the “Fold changes (2^−ΔΔCt) of Cdkn1A expression” value [3, 8]?
**A.** 1.43 and 1.41 and 1.14

**Q.** What about the “Fold changes (2^−ΔΔCt) of Cdkn1B expression” value [3, 8] of the same compound?
**A.** 1.11 and 1.07 and 0.74

**Q.** And the “Fold changes (2^−ΔΔCt) of Cyclin D1 expression” value [3, 8]?
**A.** 1.54 and 1.21 and 0.97

**Q.** And the “Fold changes (2^−ΔΔCt) of Cyclin D2 expression” value [3, 8]?
**A.** 1.04 and 1.14 and 0.74

**Q.** And the “Fold changes (2^−ΔΔCt) of Cyclin E expression” value [3, 8]?
**A.** 2.54 and 2.89 and 2.07

**Q.** What about the “expression of Cdk4, Cdk6, Cdkn1a, Cdkn1b, Cyclin D1, Cyclin D2” value ([3]; irradiated BM KSL cells) of the same compound?
**A.** did not alter the expression

**Q.** What about the “expression of Cdk2 and Cyclin E” value ([3]; irradiated KSL cells) of the same compound?
**A.** significantly increased the expression

**Q.** And the “Supplementary Figure 1: LMPTP-A activity” value ([4]; 0.27 g/mL DJ001)?
**A.** 100 and 90 and 93

**Q.** What about the “Supplementary Figure 1: LMPTP-A activity” value ([4]; 2.7 g/mL DJ001) of the same compound?
**A.** 78 and 84 and 89

**Q.** And the “Supplementary Figure 1: PTPN22 activity” value ([5]; 2.7 μg/mL DJ001)?
**A.** 94 (2×) and 89

**Q.** What about the “Supplementary Figure 1: PTPN22 activity” value ([5]; 0.27 g/mL DJ001) of the same compound?
**A.** 103 and 99 and 94
